Tests used:
human HCN1 [1] = target: T1, human HCN1 (Homo sapiens, UniProt O60741); assay: MPSD FLIPR 384 well hyperpolarization assay, HCN1; type: cell-based
T1 construct: expressed in transfected cells; host or cells: HEK-293H
T1 sequence (O60741 1-890): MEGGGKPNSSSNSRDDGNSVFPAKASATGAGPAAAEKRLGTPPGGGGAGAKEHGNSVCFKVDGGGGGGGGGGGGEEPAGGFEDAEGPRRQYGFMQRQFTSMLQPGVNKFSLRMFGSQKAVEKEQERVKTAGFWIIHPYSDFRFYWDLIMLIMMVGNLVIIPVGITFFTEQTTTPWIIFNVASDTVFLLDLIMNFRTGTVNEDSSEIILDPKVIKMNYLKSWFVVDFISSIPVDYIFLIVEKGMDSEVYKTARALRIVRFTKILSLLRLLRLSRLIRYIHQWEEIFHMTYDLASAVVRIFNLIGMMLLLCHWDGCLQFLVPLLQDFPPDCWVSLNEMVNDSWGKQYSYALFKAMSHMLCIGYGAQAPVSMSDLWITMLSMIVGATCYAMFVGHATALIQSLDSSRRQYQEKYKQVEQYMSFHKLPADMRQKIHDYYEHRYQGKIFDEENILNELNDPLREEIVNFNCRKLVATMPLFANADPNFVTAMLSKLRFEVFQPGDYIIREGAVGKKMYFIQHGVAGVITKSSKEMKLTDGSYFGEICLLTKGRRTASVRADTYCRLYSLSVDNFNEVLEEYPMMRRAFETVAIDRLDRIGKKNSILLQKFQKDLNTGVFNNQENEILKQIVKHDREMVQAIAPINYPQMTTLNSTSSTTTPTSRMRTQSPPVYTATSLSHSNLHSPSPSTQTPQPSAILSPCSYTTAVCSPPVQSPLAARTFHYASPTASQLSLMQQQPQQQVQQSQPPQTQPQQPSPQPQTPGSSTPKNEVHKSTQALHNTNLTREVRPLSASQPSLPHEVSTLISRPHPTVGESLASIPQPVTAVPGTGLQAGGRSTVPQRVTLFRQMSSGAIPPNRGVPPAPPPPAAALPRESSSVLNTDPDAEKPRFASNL
Method: HEK-293H cells stably expressing human HCN1, HCN2, or HCN3 channel were plated at a density of 45-50×10^3 cells/well in a 384 well format fluorescent imaging plate reader system (FLIPR®^384) in 50 μl/well of DMEM supplemented with 10% fetal bovine serum and penicillin/streptomycin. The cells were cultured for 24-48 hours in a 5% CO2/air humidified incubator at 37° C.
The cells seeded on the microtiter plates were incubated in 50 μl HBSS, as described in Example 2. Optionally, HBSS was supplemented with about 25 mM of KCl to further enhance the assay window. A membrane potential sensitive dye (MPSD), Component-A of the Membrane Potential Assay Kit, (Product No. R-8034, Molecular Devices Corporation of Sunnyvale, Calif.) was dissolved in the HBSS solution (1 vial/0.5 L). The excess saline was removed to fit the residual volume of about 1 μl to 5 μl. […]
Membrane potentials were measured at room temperature (21°-23°) for each of the above-described saline conditions using a fluorescent imaging plate reader system (FLIPR®, Molecular Devices of Sunnyvale, Calif.). […]
HEK-293H cells stably expressing human HCN1 channel were plated as described in Example 3 above. […] The change in fluorescence (ΔF) was measured for a total assay time of about 180 seconds. […]

human HCN1 [2] = target: T1, human HCN1; assay: MPSD FLIPR 96 well hyperpolarization assay, HCN1; type: cell-based; set-up: blockade of hyperpolarization (change in fluorescence), FIG. 4 legend: dose or concentration left out as unconfirmed
Method: The above-described assay was modified for use with the FLIPR®^96 or FLEX^96 96 well plate format. In brief, cells stably expressing HCN channels were plated at 40-80×10^3 cells/plate in 100-150 μl/well of DMEM supplemented with 10% fetal bovine serum, 1× NEAA, and 1× penicillin/streptomycin. Cells were cultured for 24-48 hours in a 5% CO2/air humidifiedincubator at 37° C. Cells were incubated in 30 μl/well of HBSS containing MPSD, as described above, for 15-45 minutes at room temperature.
Membrane potentials were measured at room temperature (21°-23°) using a FLIPR® system or a FLEXSTATION® (Molecular Devices of Sunnydale, Calif.). Control cells were incubated in HBSS/MPSD without a test agent. For identification of HCN channel modulators, cells were incubated in HBSS/MPSD and the presence of a test agent as described in Examples 5 and 6 herein below.
HEK-293H cells stably expressing HCN1 or HCN3 channels were each plated at 40-80×10^3 cells/plate in a FLIPR®^96 well format in 100-150 μl/ well of DMEM supplemented with 10% fetal bovine serum and penicillin/streptomycin. The cells were cultured for 24-48 hours in a 5% CO2/air humidified incubatorat 37° C.
[…] Cells were incubated for 15 to 45 minutes. […] The change in fluorescence (ΔF) was measured for a total assay time of about 100 seconds. […]

CCN(c1ccccc1)c1cc(=NC)n(C)c(C)n1.Cl [ZD7288]
effectively blocked hyperpolarization: blockade of hyperpolarization (change in fluorescence) (human HCN1 [1]; 30 μM ZD7288, HEK-293H HCN1, about 180 seconds) | blockade of hyperpolarization (change in fluorescence), FIG. 5 legend (human HCN1 [1]; 50 μM ZD7288, cells expressing HCN1) | blockade of hyperpolarization (change in fluorescence) (human HCN1 [2]; 50 μM ZD7288, HEK-293H HCN1, about 100 seconds) | blockade of hyperpolarization (change in fluorescence), FIG. 4 legend (human HCN1 [2]; cells expressing HCN1)
